Experimental data taken from patent publication US9321774B2, “Pyrrolobenzodiazepines” (MEDIMMUNE LIMITED, priority 2012, dated 2016).
In brackets after ≈: the same amount, converted by molar mass.

Assays:
Test in all cases: CLSI broth microplate assay, MIC
Assay type in all cases: cell-based
E. faecium VRE10 = settings: Enterococcus faecium, VRE10, read-out: Minimum inhibitory concentration (MIC mg/L) VRE10
E. faecalis VRE1 = settings: Enterococcus faecalis, VRE1, read-out: Minimum inhibitory concentration (MIC mg/L) VRE1
[1] = system: community-associated MRSA isolate USA300; settings: Staphylococcus aureus, read-out: Minimum inhibitory concentration (MIC mg/L) USA300
MRSA strain EMRSA-16 = settings: Staphylococcus aureus, read-out: Minimum inhibitory concentration (MIC mg/L) EMRSA-16
MRSA strain EMRSA-15 = settings: Staphylococcus aureus, read-out: Minimum inhibitory concentration (MIC mg/L) EMRSA-15
MRSA strain BB568 = settings: Staphylococcus aureus, read-out: Minimum inhibitory concentration (MIC mg/L) BB568
[2] = system: S. aureus VISA strain Mu50; settings: Staphylococcus aureus, read-out: Minimum inhibitory concentration (MIC mg/L) Mu50

COC(=O)c1cc(-c2ccc(NC(=O)c3cc(-c4ccc(NC(=O)CCCOc5cc6c(cc5OC)C(=O)N5CCC[C@H]5C=N6)cc4)co3)cc2)cn1C [Compound 56, (S)-methyl 4-(4-(4-(4-(4-((7-methoxy-5-oxo-2,3,5,11a-tetrahydro-1H-benzo[e]pyrrolo[1,2-a][1,4]diazepin-8-yl)oxy)butanamido)phenyl)furan-2-carboxamido)phenyl)-1-methyl-1H-pyrrole-2-carboxylate]
MIC (E. faecium VRE10): 0.25 mg/L (≈ 0.343 µM) | MIC (E. faecalis VRE1): 0.5 mg/L (≈ 0.685 µM) | MIC [1]: 1 mg/L (≈ 1.37 µM) | MIC (MRSA strain EMRSA-16): 0.5 mg/L (≈ 0.685 µM) | MIC (MRSA strain EMRSA-15): 0.25 mg/L (≈ 0.343 µM) | MIC (MRSA strain BB568): 0.5 mg/L (≈ 0.685 µM) | MIC [2]: 0.5 mg/L (≈ 0.685 µM)
